Assay results taken from patent publication US4146622A, “Aziridinyl quinone anti-transplanted tumor agents” (priority 1977, dated 1979).
In brackets after ≈: the same amount, converted by molar mass. Several values for one entry are separate records, joined by “and”; a condition that tells them apart may be missing. Equal values may be shown once. Entries after “also recorded” stand apart in the source; their conditions may differ. Read-outs that look alike come from different tables or passages of the source.

Key:
[1] = tested on: lymphoid leukemia L1210; assay: Intraperitoneal (IP) lymphoid leukemia L1210 transplanted mouse tumor test; assay type: in vivo, murine; conditions: for animals alive per 6 test animals on day of termination / survivors (number in parentheses) IP L1210: day 30; for survivors (number in parentheses) IP L1210 / ILS (%) IP L1210: Table XI; for survivors (number in parentheses) IP L1210: per 6 test animals; for cures: survivors on day 30, L1210; for maximum ILS: IP L1210; for antitumor activity: IP L1210, tetraaminobenzoquinone series (Table VIII); for ILS (%) IP L1210: outstanding activity
Source text: ^(a) Day 1-9 treatment schedule (9 injections)
^(b) Day 1,5,9 treatment schedule (3 injections)
^(c) Day 1 only treatment schedule (1 injection)
^(f) Percentage increase in life span of treated animals [(treated
survival .div. control survival) × 100%] - 100%

[2] = tested on: ependymoblastoma; assay: Intracerebral (IC) ependymoblastoma (EM) brain tumor test; assay type: in vivo, murine; conditions: for OD (optimum dose) / ILS (percentage increase in life span) / animals alive per 6 test animals on day of termination: Table X, IC ependymoblastoma; for OD (optimum dose): QD1-5; for ILS (percentage increase in life span) / animals alive per 6 test animals on day of termination: QD1-5, at OD; for antitumor activity: IC ependymoblastoma (EM)
Source text: ^c Ic tumor implantation, ip QD1-5 treatment schedule.
^g Number of animals alive per six test animals on day of termination
of experiment (day 99 for expt 133 and day 60 for expt 136 and 144).
A third IC transplanted mouse tumor model, the ependymoblastoma system, was also studied. This system requires intracerebral implantation of a solid tumor fragment while the IC L1210 and IC P388 systems utilize IC inoculated ascites tumor fluid. All three use IP drug treatment however. […] Cures (survivors from the group of six mice on the last day of the experiment) are indicated. Experiments 136 and 144 were terminated on day 60. Since the number of cures was about the same, the differences in T/C values in these two experiments reflect differences in the life span of the two different sets of control animals. Experiment 133 was terminated on day 99 with a resulting higher activity value.
The hydrophilic dihydroxypropylamino compound (No. 39), which was curative in the IP L1210 and P388 leukemia systems, was active but gave a large spread in ILS values (53-186%). […] Again, its hydrophilic character may present transport problems in this IC tumor system.

[3] = Room temperature water solubility; assay type: physicochemical
Protocol: In the following examples, all melting points are uncorrected and were recorded on a Thomas-Hoover capillary melting point apparatus. Elemental analyses were performed by NIAMDD, NIH, Bethesda, Maryland. Fluoranil, ethyleneimine and 2l -methylethyleneimine were obtained commerically. […] New compounds were identified by nmr and ir spectroscopy. In the tetraamino derivatives, the methylene protons of the aziridine rings usually occurred as a singlet at δ2.0-2.2 in CDCl3 or DMSO-d6. This absorption appeared at δ2.40 (CDCl3) for compound 11. Carbonyl absorption frequencies (nujol mull) occurred in the range 1620-1640 cm^-1 for the tetraamino compounds. Satisfactory elemental analyses (+0.4% of calculated values) are indicated by elemental symbols in Table VII. Room temperature water solubilities were determined by the incremental addition (pipet) of water to a weighed amount of compound with shaking. The solubility values in Table VII must be considered as approximate.

[4] = tested on: P388 lymphocytic leukemia; assay: Intraperitoneal (IP) lymphocytic leukemia P388 transplanted mouse tumor test; assay type: in vivo, murine; conditions: for antitumor activity: IP P388; for cures: P388, 30 day survivors, QD1-9; for OD (optimum dose) / ILS (percentage increase in life span) / animals alive per 6 test animals on day of termination: Table IX; for OD (optimum dose): IP P388, QD1-9; for ILS (percentage increase in life span) / animals alive per 6 test animals on day of termination: IP P388, QD1-9, at OD; for animals alive per 6 test animals on day of termination / survivors (number in parentheses) P388: day 30; for survivors (number in parentheses) P388: Table XI, per 6 test animals
Source text: ^b Ip tumor implantation, ip QD1-9 treatment schedule.
The L1210, P388 and B16 test systems described in Table II utilize intraperitoneal (IP) tumor implantation and IP drug treatment while the Lewis lung system employs subcutaneous tumor implantation and IP treatment.
Aqueous saline solution (0.9%) was used as the drug vehicle. Normally, five doses were employed per experiment with the top dose chosen to produce toxicity. The lower doses were 50% of each preceeding dose.
Consistent with NCI antitumor test protocols, intraperitoneal (IP) administration of the drug was employed with all five tumor systems investigated. Tumor implantation was IP in the systems designated IP leukemia L1210 and P388 as well as B16 melanoma.

[5] = Octanol/H2O partition coefficient (log P); assay type: physicochemical; conditions: Table VII, octanol/H2O; for logP: octanol/water
Source text: ^(b) Octanol/H2 O values determined by C. Hansch and M. Yamakawa

[6] = tested on: IP ascites tumor systems (leukemia L1210 and P388); assay: IP ascites tumor systems (leukemia L1210 and P388); assay type: in vivo, murine
Source text: The criterion for minimum activity, %ILS, is defined here as follows: Intraperitoneal and intracerebral leukemia L1210 and intraperitoneal leukemia P388, 25%; intraperitoneal B16 melanoma and intracerebral ependymoblastoma, 40%. Consistent with NCI antitumor test protocols, intraperitoneal (IP) administration of the drug was employed with all five tumor systems investigated. Tumor implantation was IP in the systems designated IP leukemia L1210 and P388 as well as B16 melanoma. Intracerebral (IC) tumor implantation was utilized in the IC L1210 and ependymoblastoma tumor systems.

[7] = tested on: lymphoid leukemia L1210; assay: Intracerebral (IC) lymphoid leukemia L1210 test; assay type: in vivo, murine; conditions: for antitumor activity: IC L1210; for OD (optimum dose): IC L1210, QD1-9; for ILS (%) IC L1210: Table XI, outstanding activity
[8] = tested on: B16 melanocarcinoma; assay: Intraperitoneal B16 melanocarcinoma transplanted mouse tumor test; assay type: in vivo, murine; conditions: for ILS (percentage increase in life span) / OD (optimum dose): Table IX; for ILS (percentage increase in life span): B16, QD1-9, at OD; for antitumor activity: B16 melanoma; for OD (optimum dose): B16, QD1-9; for ILS (%) B16: Table XI, outstanding activity
[9] = Table VIII, IP L1210, Day 1 only (1 injection)
[10] = Table VIII, IP L1210, Q4D(1,5,9) (3 injections)
[11] = Table VIII, IP L1210, Q4D(1,5,9), at OD
[12] = Table VIII, IP L1210, QD1-9 (9 injections)
[13] = Table VIII, IP L1210, QD1-9, at OD
[14] = water, Table VII, room temperature, approximate, read-out: Approx. H2O Sol.
[15] = Table X, IC L1210, QD1-9, at OD
[16] = Table VIII, IP L1210, Day 1 only, at OD

SMILES | OD (optimum dose) [1, 9] | OD (optimum dose) [1, 10] | OD (optimum dose) [1, 12] | survivors (number in parentheses) IP L1210 [1] | cures [1] | OD (optimum dose) [2] | ILS (percentage increase in life span) [2] | solubility [3, 14] | antitumor activity [4] | cures [4] | OD (optimum dose) [4] | ILS (percentage increase in life span) [4] | animals alive per 6 test animals on day of termination [4] | survivors (number in parentheses) P388 [4] | antitumor activity [6] | antitumor activity [7] | OD (optimum dose) ([7]; Table X) | ILS (percentage increase in life span) [7, 15] | ILS (percentage increase in life span) [8] | ILS (%) IP L1210 [1] | further results
O=C1C(N2CCN(CCO)CC2)=C(N2CC2)C(=O)C(N2CCN(CCO)CC2)=C1N1CC1 [Compound 47] | 4.0 mg/kg/injection | 4.0 mg/kg/injection and 2.0 mg/kg/injection | 1.0 mg/kg/injection and 0.5 mg/kg/injection | 3 | produced cures | 1.0 mg/kg/injection | 75% | 20 mg/mL (≈ 44.8 mM) | very active | multiple cures | 0.5 mg/kg/injection and 1.0 mg/kg/injection | 149% and 143% | 3 and 6 | 3 | most active; also recorded: superior | marginal | 2.0 mg/kg/injection and 1.5 mg/kg/injection | 43% and 41% | 22% |  | animals alive per 6 test animals on day of termination [1, 11]: 3 and 4; T - C (average weight change of test group minus control) ([1]; Table VIII, IP L1210, QD1-9, at OD, day 5): -1.7 grams; animals alive per 6 test animals on day of termination [1, 13]: 1; logP [5]: -0.75; T - C (average weight change of test group minus control) ([7]; Table X, IC L1210, QD1-9, at OD, day 5): -1.4 grams
O=C1C(NCC(O)CO)=C(N2CC2)C(=O)C(NCC(O)CO)=C1N1CC1 (stereo not drawn) [Compound 39] | 4.0 mg/kg/injection and 2.0 mg/kg/injection | 4.0 mg/kg/injection and 8.0 mg/kg/injection | 4.0 mg/kg/injection and 2.0 mg/kg/injection | 5 | produced cures |  | 99% and 53% | 30 mg/mL (≈ 81.4 mM) | very active | multiple cures | 4.0 mg/kg/injection | 143% and 141% | 6 and 4 | 6 | curative; also recorded: probably the most active compound | marginal | 4.0 mg/kg/injection | 41% and 43% | 50% and 42% | 206% | maximum ILS [1]: > 200%; antitumor activity [1]: Excellent activity; animals alive per 6 test animals on day of termination [1, 16]: 4; cures ([1]; listed as dihydroxypropylamino): Multiple cures; ILS values (spread) ([2]; EM, repeat tests): 53-186%; antitumor activity [2]: moderate to good EM activity; animals alive per 6 test animals on day of termination ([2]; day 60): 1; log P [5]: -1.97; antitumor activity [8]: active; OD (optimum dose) [8]: 4.0 mg/kg/injection and 6.0 mg/kg/injection; ILS (%) B16 [8]: 50%
O=C1C(NCCO)=C(N2CC2)C(=O)C(NCCO)=C1N1CC1 [Compound 38] | 1.5 mg/kg/injection | 0.7 mg/kg/injection | 0.7 mg/kg/injection | 2 | produced cures | 1.5 mg/kg/injection | 83% and 70% | 2 mg/mL (≈ 6.49 mM) | very active | multiple cures | 0.4 mg/kg/injection | 175% and 160% | 3 and 2 | 3 | most active; also recorded: superior | marginal | 0.75 mg/kg/injection | 57% and 48% | 61% and 51% | 205% | maximum ILS [1]: > 200%; antitumor activity [1]: Excellent activity; ILS (percentage increase in life span) [1, 16]: 175% and 119%; animals alive per 6 test animals on day of termination [1, 16]: 5 and 3; ILS (percentage increase in life span) [1, 11]: 131% and 70%; ILS (percentage increase in life span) [1, 13]: 205% and 134%; animals alive per 6 test animals on day of termination [1, 13]: 2 and 3; cures ([1]; listed as hydroxyethylamino): Multiple cures; logP [5]: -1.48; ILS (%) IC L1210 [7]: 57%; antitumor activity [8]: active; OD (optimum dose) [8]: 0.4 mg/kg/injection; ILS (%) B16 [8]: 61%
NC1=C(N2CC2)C(=O)C(N)=C(N2CC2)C1=O [Compound 33, 2,5-Dizairidinyl-3,6-diamino-1,4-benzoquinone] | 1.0 mg/kg/injection and 0.5 mg/kg/injection |  | 0.4 mg/kg/injection and 0.3 mg/kg/injection | 3 |  | 0.2 mg/kg/injection | 215% and 177% | < 0.1 mg/mL |  |  | 0.2 mg/kg/injection | 171% and 156% | 1 | 1 | active | most active; also recorded: significant activity | 0.3 mg/kg/injection | 60% and 59% | 31% and 19% | 161% | ILS (percentage increase in life span) [1, 11]: 161% and 124%; animals alive per 6 test animals on day of termination [1, 11]: 3 and 2; ILS (percentage increase in life span) [1, 13]: 115% and 100%; antitumor activity [2]: among the most active materials; animals alive per 6 test animals on day of termination ([2]; day 60): 4 and 6; survivors (number in parentheses) EM ([2]; Table XI, per 6 test animals, day 60): 6; solubility [3]: insoluble in any solvent; also recorded: exceptionally insoluble; ILS (%) IC L1210 [7]: 60%
